{"source": "paper PMC6471485", "about": "“Selective Inhibitors of a Human Prolyl Hydroxylase (OGFOD1) Involved in Ribosomal Decoding” (Chemistry (Weinheim an Der Bergstrasse, Germany), 2019)", "key": {"[1]": {"test_system": "PHD enzymes in HeLa cells", "assay": "HIFα Western blot in HeLa cells (activity of PHD enzymes in cells)", "type": "cell-based, human", "settings": "HeLa cells treated 5 h, anti-HIF-1α Western blot", "method": "supplemented with 80 µM Zn(II), 70 µM of inhibitor, all in 50 mM Tris-d11, pH 7.5, 10 % D2O, […]\nCell Culture and Immunoblotting\nHeLa cells were cultured in DMEM media supplemented with 10 % fetal bovine serum, 4 mM L-glutamine, 100 U/mL penicillin, and 100 µg/mL streptomycin. Cells were treated with the indicated compounds, prepared in 1% DMSO, for 5 h. Following a PBS buffer rinse, cells were lysed in urea/SDS buffer supplemented with 1 mM dithiothreitol. Cell extracts were analyzed by SDS-PAGE, electroblotted onto PVDF membranes (Millipore) and probed with anti-HIF-1α antibody (clone 54, BD Transduction Laboratories) at 1:1000 dilution for 1 h at room temperature. The HRP-conjugated secondary antibody was then applied at room temperature for 1 h. Target proteins were detected with SuperSignal Chemiluminescent […]\nADMET in vitro Predictors\nS9 liver microsome stability assays and MDCK-MDR1 efflux assays were carried out for CCT3 and CCT4 by Cyprotex (UK). Additional details are provided later in the Supporting"}, "[2]": {"target": "T1, OGFOD1 (Homo sapiens, UniProt Q8N543)", "T1 sequence (Q8N543 1-542)": "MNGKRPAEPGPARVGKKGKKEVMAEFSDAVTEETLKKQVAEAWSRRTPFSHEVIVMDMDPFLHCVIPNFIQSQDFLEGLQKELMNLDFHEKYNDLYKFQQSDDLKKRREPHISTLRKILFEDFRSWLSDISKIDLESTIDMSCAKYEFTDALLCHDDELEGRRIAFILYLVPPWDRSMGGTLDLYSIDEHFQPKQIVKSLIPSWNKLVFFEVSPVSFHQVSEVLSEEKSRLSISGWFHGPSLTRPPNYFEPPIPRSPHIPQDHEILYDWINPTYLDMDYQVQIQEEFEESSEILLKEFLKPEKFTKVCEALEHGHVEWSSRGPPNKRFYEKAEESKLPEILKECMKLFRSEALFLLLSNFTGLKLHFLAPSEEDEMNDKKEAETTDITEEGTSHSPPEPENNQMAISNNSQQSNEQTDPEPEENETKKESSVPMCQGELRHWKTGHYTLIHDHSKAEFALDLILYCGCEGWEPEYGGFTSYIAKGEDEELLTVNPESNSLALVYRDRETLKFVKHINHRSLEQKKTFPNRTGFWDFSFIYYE", "assay": "OGFOD1 inhibition assay: hydroxylation of RPS23 51-70 peptide by MALDI-TOF MS", "type": "biochemical", "settings": "for inhibition of OGFOD1 hydroxylation activity, in words: inhibitor 100 µM, OGFOD1 1 µM (Figures S1, S2); for OGFOD1 inhibition in fragment-based screening, in words: OGFOD1 1 μM (Figure 3B); for selectivity for OGFOD1 over PHD2, in words: OGFOD1 and PHD2 1 µM each, 23 at 100 µM (Figure 4; Figure S6); for IC50: IC50 against OGFOD1, 1 μM OGFOD1, minimum measurable IC50 0.5 μM, values for 24 and 25 regarded as preliminary; for relative potency of OGFOD1 inhibition in barbiturate SAR, in words: OGFOD1 1 µM, inhibitors at 100, 20, 5, 1 µM (Figure S9) or 5 and 1 µM (Figure S10)", "method": "(§1) OGFOD1 inhibition assays were performed by determining the extent of hydroxylation of a 20mer fragment of human ribosomal protein S23 (RPS23) containing residues 51-70 (H2N- […]\n(§2) -CONH2) by matrix-assisted laser desorption/ionization time-of-flight mass spectrometry (MALDI-TOF MS) using a Waters Micromass MALDI micro MX mass spectrometer and MassLynx 4.1, as previously described.[7,8] The optimized hydroxylation assay involved incubation of OGFOD1 (1 µM) with inhibitor (1 % v/v in DMSO) in the presence of (NH4)2Fe(SO4)2 (50 µM), the disodium salt of 2-oxoglutarate (25 µM), […]\nOGFOD1 was pre-incubated with inhibitor for 5 min before initiation of the reaction via the addition of the other reagents. Reactions were quenched with formic acid (1 % v/v) after 15 min. Samples were prepared for MALDI using α-cyano-4-hydrocinnamic acid (CHCA; prepared in 50 % acetonitrile) as a matrix. Dose-responses were assessed in 8-point triplicates, normalized to a no enzyme negative control and a no inhibitor positive control. Non-linear regression analysis was performed using Prism (GraphPad). […]"}, "[3]": {"target": "T2, PHD2181-426 (Homo sapiens, UniProt Q9GZT9)", "T2 construct": "181-426 (1 µM) was", "T2 sequence (Q9GZT9 181-426 limits assumed)": "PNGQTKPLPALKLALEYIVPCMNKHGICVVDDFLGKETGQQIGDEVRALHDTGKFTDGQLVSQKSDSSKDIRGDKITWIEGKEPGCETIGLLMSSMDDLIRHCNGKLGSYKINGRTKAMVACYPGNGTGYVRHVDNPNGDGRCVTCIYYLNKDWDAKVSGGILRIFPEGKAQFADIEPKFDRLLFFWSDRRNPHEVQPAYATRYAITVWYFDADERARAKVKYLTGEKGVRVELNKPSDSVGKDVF", "assay": "PHD2 inhibition assay: hydroxylation of HIF-1a CODD peptide by MALDI-TOF MS", "type": "biochemical", "settings": "inhibitor 100 µM, PHD2181-426 1 µM (Figures S2, S8)", "method": "as §1, §2\nOGFOD1 was pre-incubated with inhibitor for 5 min before initiation of the reaction via the addition of the other reagents. Reactions were quenched with formic acid (1 % v/v) after 15 min. Samples were prepared for MALDI using α-cyano-4-hydrocinnamic acid (CHCA; prepared in 50 % acetonitrile) as a matrix. Dose-responses were assessed in 8-point triplicates, normalized to a no enzyme negative control and a no inhibitor positive control. Non-linear regression analysis was performed using Prism (GraphPad).\nPHD2181-426 inhibition assays were performed by determining the extent of hydroxylation of a HIF-1a CODD peptide substrate (HIF-1a residues 556-574), using MALDI-TOF MS as described with OGFOD1.[8] The optimized hydroxylation assay involved incubation of PHD2181-426 (1 µM) with inhibitor (1 % v/v in DMSO) in the presence of (NH4)2Fe(SO4)2 (10 µM), the disodium salt of 2-oxoglutarate (60 µM), sodium ascorbate (100 µM), and HIF-1aCODD 556-574 (50 µM) in HEPES (50 mM, pH 7.5) at 37 °C for 15 min. The FIH assay employed MALDI-TOF MS detection of hydroxylation. Reactions consisted of FIH […]\n(50 nM), ankyrin peptide (50 µM; […]), the disodium salt of 2- […]\noxoglutarate (100 µM), sodium ascorbate (100 µM), and (NH4)2Fe(SO4)2 (10 µM), and […]"}}}
{"molecule": "Cc1cccc(CCC(=O)c2c(O)n(C)c(=O)n(C)c2=O)c1", "values": [{"measurement": "melting point", "value": 131, "unit": "°C"}]}
{"molecule": "Cc1ccc(CCC(=O)c2c(O)n(C)c(=O)n(C)c2=O)cc1", "values": [{"measurement": "melting point", "value": 140, "unit": "°C"}]}
{"molecule": "Cn1c(O)c(C(=O)CCC2CCCCC2)c(=O)n(C)c1=O", "values": [{"measurement": "melting point", "value": 58, "unit": "°C"}]}
{"molecule": "Cn1c(O)c(C(=O)[C@H]2C[C@H]2c2ccccc2)c(=O)n(C)c1=O", "values": [{"measurement": "melting point", "value": 111, "unit": "°C"}]}
{"molecule": "Cn1c(O)c(C(=O)C2Cc3ccccc3C2)c(=O)n(C)c1=O", "values": [{"measurement": "melting point", "value": 120, "unit": "°C"}]}
{"molecule": "CC(CC(=O)c1c(O)n(C)c(=O)n(C)c1=O)c1ccccc1", "note": "(stereo not drawn)", "values": [{"measurement": "melting point", "value": 100, "unit": "°C"}]}
{"molecule": "CC(C)(C)OC(=O)c1ccc(-n2[nH]cc(-n3ccnn3)c2=O)nc1", "note": "[IOX4, reference compound]", "values": [{"measurement": "HIFα stabilization in HeLa cells, in words", "setting": "[1]", "value": "inhibits the hydroxylation of HIFα, preventing proteasomal degradation"}]}
{"molecule": "O=C1CCCC(=O)C1C(=O)c1ccc(C(F)(F)F)cc1[N+](=O)[O-]", "note": "[compound 1, nitisinone, reference compound]", "values": [{"measurement": "inhibition of OGFOD1 hydroxylation activity, in words", "setting": "[2]", "value": "is an OGFOD1 inhibitor"}]}
{"molecule": "CCC(O)=C1C(=O)CC(C(=O)O)CC1=O", "note": "(stereo not drawn) [compound 4, prohexadione‐calcium, reference compound]", "values": [{"measurement": "inhibition of OGFOD1 hydroxylation activity, in words", "setting": "[2]", "value": "inhibition of OGFOD1"}]}
{"molecule": "O=C(O)CNC(=O)c1nc(Cl)c2ccccc2c1O", "note": "[compound 7, reference compound]", "values": [{"measurement": "inhibition of OGFOD1 hydroxylation activity, in words", "setting": "[2]", "value": "inhibited OGFOD1"}]}
{"molecule": "Cc1nc(C(=O)NCC(=O)O)c(O)c2ccc(Oc3ccccc3)cc12", "note": "[compound 8, reference compound]", "values": [{"measurement": "inhibition of OGFOD1 hydroxylation activity, in words", "setting": "[2]", "value": "inhibited OGFOD1"}]}
{"molecule": "O=C(O)CNC(=O)c1c(O)c2ccccc2n(Cc2ccccc2)c1=O", "note": "[compound 9, reference compound]", "values": [{"measurement": "inhibition of OGFOD1 hydroxylation activity, in words", "setting": "[2]", "value": "inhibited OGFOD1"}]}
{"molecule": "CCOC(=O)CC(=O)OCC", "note": "[compound 10, diethyl malonate]", "values": [{"measurement": "OGFOD1 inhibition in fragment-based screening, in words", "setting": "[2]", "value": "poor inhibitors"}]}
{"molecule": "CC(=O)C1CCCCC1=O", "note": "(stereo not drawn) [compound 11, 2‐acetylcyclohexanone]", "values": [{"measurement": "OGFOD1 inhibition in fragment-based screening, in words", "setting": "[2]", "value": "poor inhibitors"}]}
{"molecule": "CC(=O)c1c(O)cccc1O", "note": "[compound 16, 2′,6′‐dihydroxyacetophenone]", "values": [{"measurement": "OGFOD1 inhibition in fragment-based screening, in words", "setting": "[2]", "value": "relatively poor OGFOD1 inhibitor"}]}
{"molecule": "CC(=O)c1c(O)[nH]c(=O)[nH]c1=O", "note": "[compound 18]", "values": [{"measurement": "OGFOD1 inhibition in fragment-based screening, in words", "setting": "[2]", "value": "improved potency"}]}
{"molecule": "CC(=O)c1c(O)[nH]c(=S)[nH]c1=O", "note": "[compound 19]", "values": [{"measurement": "OGFOD1 inhibition in fragment-based screening, in words", "setting": "[2]", "value": "did not substantially increase the potency"}]}
{"molecule": "CC(=O)c1c(O)n(C)c(=O)n(C)c1=O", "note": "[compound 20]", "values": [{"measurement": "OGFOD1 inhibition in fragment-based screening, in words", "setting": "[2]", "value": "improved potency"}]}
{"molecule": "CCOC(=O)CNC(=O)c1c(O)[nH]c(=O)[nH]c1=O", "note": "[compound 22]", "values": [{"measurement": "selectivity for OGFOD1 over PHD2, in words", "setting": "[2]", "value": "did not manifest clear selectivity for OGFOD1 over PHD2"}]}
{"molecule": "CCOC(=O)CNC(=O)c1c(O)n(C)c(=O)n(C)c1=O", "note": "[compound 23]", "values": [{"measurement": "selectivity for OGFOD1 over PHD2, in words", "setting": "[2]", "value": "did not manifest clear selectivity for OGFOD1 over PHD2"}]}
{"molecule": "Cn1c(O)c(C(=O)c2ccccc2)c(=O)n(C)c1=O", "note": "[compound 24]", "values": [{"measurement": "IC50", "setting": "[2]", "value": 30, "unit": "µM"}, {"measurement": "inhibition of PHD2 hydroxylation activity, in words", "setting": "[3]", "value": "Lack of inhibition"}]}
{"molecule": "Cn1c(O)c(C(=O)Cc2ccccc2)c(=O)n(C)c1=O", "note": "[compound 25]", "values": [{"measurement": "IC50", "setting": "[2]", "value": 2, "unit": "µM"}, {"measurement": "inhibition of PHD2 hydroxylation activity, in words", "setting": "[3]", "value": "Lack of inhibition"}]}
{"molecule": "Cn1c(O)c(C(=O)CCCc2ccccc2)c(=O)n(C)c1=O", "note": "[compound 27]", "values": [{"measurement": "relative potency of OGFOD1 inhibition in barbiturate SAR, in words", "setting": "[2]", "value": "did not provide a substantial increase in potency"}]}
{"molecule": "Cn1c(O)c(C(=O)CCCCc2ccccc2)c(=O)n(C)c1=O", "note": "[compound 28]", "values": [{"measurement": "relative potency of OGFOD1 inhibition in barbiturate SAR, in words", "setting": "[2]", "value": "did not provide a substantial increase in potency"}]}
{"molecule": "CCn1c(O)c(C(=O)CCC2CCCC2)c(=O)n(CC)c1=O", "note": "[compound 30]", "values": [{"measurement": "relative potency of OGFOD1 inhibition in barbiturate SAR, in words", "setting": "[2]", "value": "less potent than 29"}]}
{"molecule": "O=C(CCC1CCCC1)c1c(O)n(C2CCCCC2)c(=O)n(C2CCCCC2)c1=O", "note": "[compound 31]", "values": [{"measurement": "relative potency of OGFOD1 inhibition in barbiturate SAR, in words", "setting": "[2]", "value": "less potent than 29"}]}
{"molecule": "Cn1c(O)c(C(=O)NCc2ccccc2)c(=O)n(C)c1=O", "note": "[compound 46]", "values": [{"measurement": "relative potency of OGFOD1 inhibition in barbiturate SAR, in words", "setting": "[2]", "value": "had little effect"}]}
{"molecule": "trinexapac‐ethyl [compound 5, reference compound]", "values": [{"measurement": "inhibition of OGFOD1 hydroxylation activity, in words", "setting": "[2]", "value": "inhibition of OGFOD1"}]}
